Experimental findings from ChEMBL document CHEMBL1201862, “PubChem BioAssay data set” (2004) are described below.

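Dose response: 5 concentrations. Exposure: 48 h. Format: 96-well plates. Endpoint: linear interpolation; highest concentration if not reached. The concentration for 50% growth inhibition is given as GI50.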 Calls of active or inactive are those of the source. Rule as the data show it: active = GI50 up to about 1.1 µM and inactive = higher. Some results are limits rather than exact numbers.

As a reminder, the GI50 is the concentration giving 50% growth inhibition.

Test systems include ACHN; COLO 205; EKVX; HCC 2998; HCT-116; HL-60; MDA-MB-231; MDA-MB-435; NCI-H23; OVCAR-3; OVCAR-4; SF-268; SF-295; SF-539; SK-MEL-28; SNB-19; T47D; Malme-3M; NCI-H522.
Assay in all cases: DTP human tumour cell line panel, 48 h

Consider `CC1=CC(=O)/C(=C/NC(=S)Nc2ccc(S(N)(=O)=O)cc2)C(=O)O1`, for which the GI50 in the test with ACHN, in the test on COLO 205, in the test on EKVX, in the test on HCC 2998, in the test with HCT-116 and in the test on HL-60 was > 100 µM (inactive) in each case. The GI50 in the test with MDA-MB-231, in the test with MDA-MB-435, with NCI-H23, with OVCAR-3, in the test on OVCAR-4 and in the test on SF-268 was > 100 µM (inactive) throughout. Besides, the GI50 in the test on SF-295, with SF-539, in the test with SK-MEL-28, in the test on SNB-19 and in the test with T47D was > 100 µM (inactive) in each case.
As for `CC(O)CNC(=O)Nc1c(C(F)(F)F)cc(-c2ccccc2)[nH]c1=O` (stereo not drawn), the GI50 is > 100 µM (inactive) with ACHN; > 100 µM (inactive) with COLO 205; > 100 µM (inactive) in the test on EKVX; > 100 µM (inactive) in the test on HCC 2998; > 100 µM (inactive) in the test with HCT-116; 0.343 µM (active) in the test with HL-60. The GI50 with MDA-MB-231, in the test with MDA-MB-435, in the test on Malme-3M, in the test with NCI-H23, with NCI-H522 and in the test on OVCAR-3 was > 100 µM (inactive) each time. The GI50 in the test on OVCAR-4, in the test on SF-268, in the test with SF-295, in the test with SK-MEL-28, in the test with SNB-19 and in the test with T47D was > 100 µM (inactive) in each case.
Turning to `COc1ccc2c(c1)CN1C(=N2)CSC1c1ccccc1Cl` (stereo not drawn), the GI50 with ACHN is 17.6 µM (inactive); with COLO 205 it was 12.8 µM (inactive); in the test on EKVX, 16.6 µM (inactive); in the test with HCC 2998, 14.4 µM (inactive); with HCT-116, 17.5 µM (inactive); in the test on HL-60, 6.55 µM (inactive). Also, the GI50 in the test with MDA-MB-231 was 21.8 µM (inactive); in the test with MDA-MB-435, 18.8 µM (inactive); in the test on Malme-3M, 19.1 µM (inactive); in the test on NCI-H23, 1.66 µM (inactive); in the test with NCI-H522, 12.9 µM (inactive); in the test on OVCAR-4, 20.1 µM (inactive). Moreover, the GI50 with SF-268 was 24 µM (inactive); with SF-295 it was 24.7 µM (inactive); in the test with SF-539, 14.5 µM (inactive); in the test with SK-MEL-28, 11.1 µM (inactive); in the test on SNB-19, 28.6 µM (inactive); with T47D it was 27.7 µM (inactive).
For the compound `N#CC1C(=O)Nc2sc(C(=O)c3ccc(Br)cc3)c(N)c2C12CCCCC2` (stereo not drawn), the GI50 with ACHN was 35.6 µM (inactive); in the test with COLO 205, 13.7 µM (inactive); in the test with EKVX, 17.7 µM (inactive); with HCC 2998 it was 22.5 µM (inactive); in the test on HCT-116, 15.8 µM (inactive); with MDA-MB-231 it was 23 µM (inactive). Also, the GI50 is 18.9 µM (inactive) in the test with MDA-MB-435; 26.1 µM (inactive) in the test on Malme-3M; 25 µM (inactive) with NCI-H23; 18.3 µM (inactive) with NCI-H522; 9.66 µM (inactive) in the test with OVCAR-3; 18 µM (inactive) in the test on OVCAR-4. In addition, the GI50 in the test on SF-268 is 22.7 µM (inactive); with SF-295, 30.5 µM (inactive); with SF-539, 17.2 µM (inactive); with SK-MEL-28, 16 µM (inactive); with SNB-19, 37.9 µM (inactive); in the test on T47D, 12.3 µM (inactive).
Take `O=C(CNS(=O)(=O)Cc1ccccc1)NNc1ccccc1`: the GI50 with ACHN is > 100 µM (inactive); in the test with COLO 205, 3.23 µM (inactive); in the test on EKVX it was > 69.5 µM (inactive); in the test with HCC 2998, > 100 µM (inactive); in the test on HCT-116, > 100 µM (inactive); in the test with HL-60 it was 3.44 µM (inactive). The GI50 with MDA-MB-231 was > 100 µM (inactive); in the test on MDA-MB-435, 6.95 µM (inactive); with Malme-3M, > 100 µM (inactive); with NCI-H23 it was > 100 µM (inactive); in the test on OVCAR-3 it was 49.4 µM (inactive); in the test on OVCAR-4, > 100 µM (inactive). Moreover, the GI50 with SF-268 was > 100 µM (inactive); in the test with SF-295 it was 4.02 µM (inactive); in the test with SF-539, 3.05 µM (inactive); in the test on SK-MEL-28, > 100 µM (inactive); in the test with SNB-19, > 100 µM (inactive); in the test on T47D, > 42.3 µM (inactive).
Take `O=C1CSC2=NC3=C(CSC/C3=C\c3ccccc3)C(c3ccccc3)N12` (stereo not drawn): the GI50 in the test with ACHN is 57.5 µM (inactive); in the test on COLO 205, > 100 µM (inactive); with EKVX, > 100 µM (inactive); in the test on HCC 2998, > 100 µM (inactive); in the test on HCT-116 it was 50.2 µM (inactive); in the test with HL-60, 32.2 µM (inactive). Besides, the GI50 with MDA-MB-231 was > 100 µM (inactive); with MDA-MB-435, 65.5 µM (inactive); in the test on Malme-3M, > 100 µM (inactive); with NCI-H23, 62.1 µM (inactive); with OVCAR-3 it was 88.9 µM (inactive); in the test on OVCAR-4 it was > 100 µM (inactive). Besides, the GI50 in the test with SF-268 is > 100 µM (inactive); in the test with SF-295, > 100 µM (inactive); in the test on SF-539 it was > 100 µM (inactive); with SK-MEL-28 it was > 100 µM (inactive); in the test with T47D, 52.2 µM (inactive).
As for `CCOC(=O)c1cc(C)nc2c1c(=O)n(-c1ccccc1)c(=O)n2CCCCN1CCN(c2ncccn2)CC1`, the GI50 in the test on ACHN is > 100 µM (inactive); in the test with COLO 205 it was 60.1 µM (inactive); with EKVX, > 100 µM (inactive); in the test with HCC 2998 it was > 100 µM (inactive); in the test on HCT-116, 85.5 µM (inactive); with HL-60, 25.4 µM (inactive). The GI50 was 80.7 µM (inactive) in the test on MDA-MB-231; > 100 µM (inactive) in the test with MDA-MB-435; > 100 µM (inactive) in the test on Malme-3M; > 100 µM (inactive) in the test on NCI-H23; > 100 µM (inactive) with NCI-H522; 94 µM (inactive) in the test on OVCAR-3. In addition, the GI50 in the test with SF-268 is > 100 µM (inactive); with SF-295, > 100 µM (inactive); in the test with SK-MEL-28, > 100 µM (inactive); in the test on T47D, 43.5 µM (inactive).
For `N#Cc1nc(CCc2nc(C#N)c(N)o2)oc1N`, the GI50 in the test on ACHN, in the test with COLO 205, with EKVX, in the test with HCC 2998, in the test on HCT-116 and in the test with HL-60 was > 10 µM (inactive) throughout. In addition, the GI50 in the test on MDA-MB-231, with MDA-MB-435, in the test on Malme-3M, in the test with NCI-H23, in the test on NCI-H522 and in the test with OVCAR-4 was > 10 µM (inactive) throughout. The GI50 in the test on SF-268, in the test on SF-295, in the test on SF-539, in the test on SK-MEL-28, in the test on SNB-19 and in the test with T47D was > 10 µM (inactive) each time.
On to `Clc1ccc(-c2cc3nc4ccccc4nc3o2)cc1`, for which the GI50 in the test on ACHN is 25.4 µM (inactive); in the test with COLO 205, > 100 µM (inactive); in the test on EKVX, > 100 µM (inactive); with HCC 2998 it was > 100 µM (inactive); in the test on HCT-116, > 100 µM (inactive); with HL-60 it was > 100 µM (inactive). Further, the GI50 with MDA-MB-231, with MDA-MB-435, in the test on Malme-3M, in the test on NCI-H23, in the test with OVCAR-3 and with OVCAR-4 was > 100 µM (inactive) throughout. Also, the GI50 with SF-268 was 63.8 µM (inactive); in the test with SF-295, 58.7 µM (inactive); in the test on SF-539, 53.3 µM (inactive); with SK-MEL-28 it was > 100 µM (inactive); in the test with SNB-19, 31.6 µM (inactive); in the test with T47D, > 100 µM (inactive).
Consider `O=C1CCCCC/C1=C\c1ccccc1`, for which the GI50 was > 100 µM (inactive) in the test on ACHN; > 100 µM (inactive) with COLO 205; > 100 µM (inactive) in the test with EKVX; > 100 µM (inactive) in the test on HCC 2998; > 100 µM (inactive) in the test with HCT-116; 18.2 µM (inactive) with HL-60. Moreover, the GI50 in the test on MDA-MB-231 was > 100 µM (inactive); in the test on MDA-MB-435, 76 µM (inactive); in the test on Malme-3M it was > 100 µM (inactive); in the test on NCI-H23, > 100 µM (inactive); with NCI-H522, > 100 µM (inactive); with OVCAR-3, > 100 µM (inactive). The GI50 with OVCAR-4 was 67.6 µM (inactive); with SF-268 it was > 100 µM (inactive); in the test with SF-295, > 100 µM (inactive); in the test with SK-MEL-28, > 100 µM (inactive); with SNB-19, > 100 µM (inactive); with T47D, > 100 µM (inactive).
With `COC1=C2C=[N+](C)C3C(=C2C=CC1OC)Cc1cc2c(cc13)OCO2` (stereo not drawn), the GI50 is 5.26 µM (inactive) in the test with COLO 205; 17.9 µM (inactive) with EKVX; 13.8 µM (inactive) in the test on HCT-116; 4.61 µM (inactive) in the test with HL-60; 14.6 µM (inactive) in the test with MDA-MB-231; 15.4 µM (inactive) in the test with MDA-MB-435. Besides, the GI50 was 3.88 µM (inactive) with Malme-3M; 13 µM (inactive) in the test on NCI-H23; 4.32 µM (inactive) in the test with NCI-H522; 3.75 µM (inactive) in the test on OVCAR-3; 10.5 µM (inactive) with OVCAR-4; 3.8 µM (inactive) with SF-268. The GI50 with SF-295 is 15.3 µM (inactive); in the test with SF-539 it was 11.8 µM (inactive); in the test on SK-MEL-28, 15.1 µM (inactive); in the test on SNB-19, 5.28 µM (inactive); in the test with T47D it was 5.02 µM (inactive).
